SMILES strings stand for the structures.

This passage reports CFUs results from US20230175032A1, “EFFICIENT SYNTHESIS OF OMEGA-GLYCOSIDES AND ALKYL GLYCOSIDES” (AMPHISTAR, priority 2020, published 2023).

In the test the test system is S. bombicola Δcyp52M1Δfao1 strain. The test can be described thus: shake flask cultivation fed with primary alcohols, viability as colony forming units. The conditions noted are these: alcohol added after 48 h of cultivation; in contrast to all other fed substrates (FIG. 8A). The test is classed as cell-based, Starmerella bombicola. The protocol:
Production experiments using S. bombicola were performed using the production medium described by Lang et al., (2000). For shake flask experiments, 5 mL tube cultures were set up 24 h (30° C.), before transferring to shake flasks (4% inoculation). Production experiments were executed with feeding of fatty alcohols: oleyl alcohol, stearyl alcohol, lauryl alcohol, myristyl alcohol or cetyl alcohol which were added after 48 h of cultivation. The Δcyp52M1Δfao1 strain was also assessed without addition of the hydrophobic alcohol. For every production experiment, cultivation was stopped when glucose was depleted from the medium. […]
Optical density (OD) of cultures was measured at 600 nm using the Jasco V 630 Bio spectrophotometer (Jasco Europe) of 1 mL samples diluted with physiological solution (9 g/L NaCl). The viability of yeast cells in cultivation experiments was assessed by determining colony forming units (CFUs) which were expressed as the average logarithm of CFUs per culture volume as log(CFU/mL) (Saerens, Saey, et al., 2011). Alternatively, Cell Dry Weight (CDW) was determined by centrifuging 1 mL fermentation samples at 14000 rpm for 5 min in tared Eppendorf tubes, and subsequently washing the cell pellets twice with 1 mL physiological solution. […] The CDW (g/L) was calculated after subtraction of the empty weight of the Eppendorf tube.

In the case of `CCCCCCCCCCCCO` [lauryl alcohol], the CFUs result was “significant drop”.
